Assay results: patent US20070287666A1, “Modulator of gamma-secretase” (priority 2006, published 2007)
Changes are numbered by the printed parent chain.

What was measured:
ε-secretase = assay: Cadherin processing assay; assay type: biochemical; conditions: in words
Procedure: Notch and cadherin cleavage assays were performed as described previously (27, 29).
Cadherin processing assay: Assays were performed as previously described (29). Briefly, cells were resuspended in 0.5 ml/35-mm dish of hypotonic buffer (10 mM MOPS, pH 7.0, 10 mM KCl) and homogenized on ice. A post-nuclear supernatant was prepared by centrifugation at 1000×g for 15 minutes at 4° C. Crude membranes were isolated from the post-nuclear supernatant by centrifugation at 16,000×g for 40 minutes at 4° C. The membranes were then resuspended in 25 μl of assay buffer (150 mM sodium citrate, pH 6.4, 1× Complete protease inhibitor cocktail, Roche), and incubated at 37° C. for 4 hours in the presence or absence of γ-secretase inhibitor (L-685,458, 1 μM). Samples were then analyzed by immunoblotting using C32 anti-N-cadherin and C36 anti-E-cadherin antibodies (BD Transduction Laboratories).

γ-secretase [1] = assay: Aβ assay (ELISA, immunoprecipitation-western blotting) of conditioned medium from whole cells; assay type: cell-based, human; conditions: whole cells or cell-free γ-secretase assays; in words
Procedure: Aβ40 and Aβ42 levels were measured by ELISA and immunoprecipitation-western blotting as described previously, with the use of 12-24-h-conditioned medium collected from native HEK-293 cells or from HEK-293 cells stably overexpressing APP (APPswedish or APPwt) (3,24). They were resuspended in Assay Buffer (10 mM KOAc, 1.5 mM MgCl2, protease inhibitors (Roche), 75 mM sodium citrate, pH 6.4) and incubated at 0° C. or 37° C. for 2 or 4 hours (24). CHAPSO-solubilized membrane fractions from above cells were subjected to cell free γ-secretase assay as described below without addition of the C100-Flag substrate. Following adjustment to RIPA buffer, Aβ were captured by immmunoprecipitation with 6E10 antibody (Signet) and immunoblotted as described previously (24). ε-stubs were detected by Western blotting with anti-APP-CT antibody (Sigma).

TMP21 = assay: Western blotting of target protein expression after siRNA knockdown; assay type: cell-based, human; conditions: whole cells; in words
Procedure: siRNA-based knockdowns of target proteins were performed as described, in HEK-293 or blastocyst-derived cells (30). The oligonucleotide sequences are available in Supplementary Information.
siRNA-based knockdowns of target proteins were carried out as described (30). […] As negative controls, we used a mixture of four pooled scrambled siRNAs and mock transfections without siRNA. The expression level of target proteins was monitored by Western blotting with polyclonal anti-TMP21 or anti-p24a antibodies. Each of the individual oligonucleotide pairs where independently shown to suppress the relevant target protein (FIG. 8).

γ-secretase [2] = molecular target: T1, γ-secretase (Homo sapiens, UniProt P49768); assay: γ-secretase reconstituted in yeast, APPC1-55/Gal4 lacZ reporter assay; assay type: cell-based, S. cerevisiae; design: expressed in transfected cells; host or cells: S. cerevisiae (strains PMY1 and DEY1); conditions: co-expression with PS1, NCT, APH-1, PEN-2; wt or V717I APP reporter; in words
Description: Core γ-secretase enzyme activity of the mammalian CNS was reconstituted in S. cerevisiae by co-expression of human presenilin 1 (PS1), nicastrin (NCT), APH-1 and PEN-2 in accordance with the method described by Edbauer (12), with activity measured via endoproteolytic release of a Gal4 transcriptional activator from an APPC1-55 juxtamembrane region and trans activation of a β-galactosidase reporter gene. While a starting configuration performed slightly above the baseline of cells lacking γ-secretase subunits, non-fermentable carbon sources favoring oxidative metabolism increased output up to 100-fold and allowed profiling of the system. As in mammalian cells, activity was greater with wt PS1 than wt PS2, sensitive to missense mutations of APP substrate near the Aβ42 site, and was modulated by the membrane protein TMP21.
Besides the production of Aβ-related peptide fragments identified by mass spectroscopy, enzyme activity was measured via a transcriptional reporter assay wherein endoproteolysis of a membrane-tethered APPC1-55/Gal4 fusion protein results in the release of a Gal4 transcriptional activator capable of driving a reporter gene (lacZ) with a colorimetric output. Effect of TMP21, Erv25p and Emp24p on reporter activity and PS1 processing

γ-secretase [3] = molecular target: T1, γ-secretase; assay: Cell-free γ-secretase assay with immunopurified PS1 complexes and C100-Flag substrate; assay type: biochemical; design: PS1 complex was isolated by immunoprecipitation from CHAPSO extracted membranes; endogenous in cells; host or cells: HEK-293 (also SHSY-5Y) CHAPSO-solubilized membranes, anti-PS1 (A4) immunoprecipitate; conditions: exogenous protein added to immunopurified TMP21-deficient PS1 complexes; in words
Procedure: Cell-free γ-secretase assays with endogenous APP were performed on microsome membranes from HEK-293 cells stably over expressing APPswedish with or without TMP21 RNAi treatments as described previously (24). ε-stubs were detected by western blotting with anti-APP-CT antibody (Sigma). Cell-free γ-secretase assay was performed as described (7, 13), with exogenous APP-C100 as the substrate was performed with recombinant APP-C100 peptides, wherein PS1 complex was isolated by immunoprecipitation from CHAPSO extracted membranes and combined with the recombinant C100 substrate and the generation of Aβ is determined by ELISA and AICD production is monitored by western blotting. More particularly, the peptides were generated from a prokaryotic expression vector encoding the C-terminal 100 amino acids (596-695) of human APP (695-residue isoform) followed by Flag and His6 sequences (C100-Flag-His6). This was generated by PCR and cloning into pQE60 (Qiagen). […] The generated Aβ was analyzed by immunoblotting or ELISA (Biosource).
Solubilized γ-secretase was prepared as described (7,13). […] Following addition of the C100-Flag substrate (˜0.5 μM) to 50 μl of the solubilized γ-secretase preparation the reaction mixture was incubated for 6 hrs at 37° C. and Aβ products detected by ELISA and Western blotting. […]

CC(C)C[C@H](NC(=O)[C@H](Cc1ccccc1)C[C@@H](O)[C@H](Cc1ccccc1)NC(=O)OC(C)(C)C)C(=O)N[C@@H](Cc1ccccc1)C(N)=O [L685,458]
ε-cleavage of E-cadherin or N-cadherin substrates (CAD/CTF1) to CAD/CTF2 (ε-secretase): specifically inhibited

p24a siRNA: p24a siRNA oligos (SEQ ID NO:12, 13) and p24a pooled oligos, Dharmacon (chain 1 AACCGGATGTCCACCATGACT; chain 2 ACAGAGCCATCAACGACAA; bought from Dharmacon, further chemistry not given here)
effect on Aβ production (γ-secretase [1]): no effect | total cellular TMP21 levels / expression (TMP21): decrease

B1: TMP21: 219-amino-acid type 1 transmembrane protein, member of the p24 cargo-protein family (accession number Q9D1D4); expressed from cDNA (protein, UniProt Q9D1D4 32-219, looked up)
Transmembrane emp24 …: ISFHLPVNSRKCLREEIHKDLLVTGAYEITDQSGGAGGLRTHLKITDSAGHILYAKEDATKGKFAFTTEDYDMFEVCFESKGTGRIPDQLVILDMKHGVEAKNYEEIAKVEKLKPLEVELRRLEDLSESIVNDFAYMKKREEEMRDTNESTNTRVLYFSIFSMFCLIGLATWQVFYLRRFFKAKKLIE
effect on Aβ production (γ-secretase [1]): no discernible effect | lacZ reporter activity (γ-secretase [2]): markedly reduced

B2: TMP21-Flag: TMP21 tagged at the C terminus with the Flag epitope, immunopurified from HEK-293 cells (protein)
chain: B1 Transmembrane emp24 … with V7I, T30S, T41S, A55S
modifications: left off: small tags and cut ends
Aβ production after complementation of TMP21-deficient PS1 complexes (γ-secretase [3]): reverted to normal
